Laboratory results: patent US12679878B2, “CRF2 receptor agonists and their use in therapy” (SANOFI, priority 2020, dated 2026)
Like-named read-outs stand apart in the source and are kept apart here. Starred links: 1 amine or outer side, 2 acyl side, 3 side chain; linkers in the order of their positions; H or OH if unused. Non-standard residues stand in square brackets, D forms with d. Residues, ends and D or L forms follow the SMILES beside them. Groups on a side chain read outwards from the residue. *: point of attachment. C20 diacid = O=C(O)CCCCCCCCCCCCCCCCCCC(=O)*; C18 diacid = O=C(O)CCCCCCCCCCCCCCCCC(=O)*; γGlu = O=C(O)[C@H](CCC(=O)[*:2])N[*:1]; AEEA = NCCOCCOCC(=O)O; Aib = CC(C)(N)C(=O)O

Target: T1, human CRF2α receptor (Homo sapiens, UniProt Q13324)
T1 construct: expressed in transfected cells; host or cells: TeloHEAC
T1 sequence (Q13324 1-411): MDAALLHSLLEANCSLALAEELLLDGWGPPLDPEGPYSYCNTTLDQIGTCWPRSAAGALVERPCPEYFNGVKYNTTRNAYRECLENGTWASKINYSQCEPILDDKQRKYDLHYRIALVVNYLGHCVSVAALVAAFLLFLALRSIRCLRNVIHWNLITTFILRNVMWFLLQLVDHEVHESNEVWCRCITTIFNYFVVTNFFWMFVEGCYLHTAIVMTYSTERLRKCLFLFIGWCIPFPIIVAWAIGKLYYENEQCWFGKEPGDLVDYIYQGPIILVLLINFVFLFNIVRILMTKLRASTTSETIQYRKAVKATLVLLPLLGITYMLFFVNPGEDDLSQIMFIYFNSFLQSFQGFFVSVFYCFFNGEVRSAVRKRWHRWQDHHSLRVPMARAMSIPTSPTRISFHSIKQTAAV
Assay: cAMP agonism at human CRF2 α receptor in TeloHEAC cells (Example 7)
Type: cell-based
Conditions: cAMP HTRF, TeloHEAC cells stably expressing human CRF2 α
In short: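 HTRF ratio 665/620 nm, read 1 h after lysis reagents, reports cAMP. Cells: thawed stocks, 2000/well, 30 min RT with compound in HBSS, 20 mM HEPES, 0 or 0.1% HSA, 2 mM IBMX. Activity normalised to UCN2 1000 nM = 100%; EC50 from half-maximal activation.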

[1] = 0% HSA, read-out: EC50 [nM], 0% HSA
[2] = 0.1% HSA, read-out: EC50 [nM], 0.1% HSA

Row | SMILES | EC50 [1] | EC50 [2]
1 | CC[C@H](C)[C@H](NC(=O)[C@H](CCC(N)=O)NC(=O)[C@H](CCCCN)NC(=O)[C@H](CC(N)=O)NC(=O)[C@H](CCCCN)NC(=O)[C@H](CCCCN)NC(=O)[C@H](C)NC(=O)[C@H](CCCCN)NC(=O)[C@H](CCC(N)=O)NC(=O)[C@H](CCCNC(=N)N)NC(=O)[C@H](CCC(N)=O)NC(=O)[C@H](CCCCN)NC(=O)[C@H](CCCCN)NC(=O)[C@H](CCC(N)=O)NC(=O)[C@H](CCCNC(=N)N)NC(=O)[C@H](CCC(=O)O)NC(=O)[C@H](CCC(N)=O)NC(=O)[C@H](CCCCN)NC(=O)[C@H](CC(C)C)NC(=O)[C@H](CC(C)C)NC(=O)[C@@H](NC(=O)[C@H](CCC(N)=O)NC(=O)[C@H](CCCCNC(=O)COCCOCCNC(=O)COCCOCCNC(=O)CC[C@H](NC(=O)CCCCCCCCCCCCCCCCC(=O)O)C(=O)O)NC(=O)[C@@H](NC(=O)[C@H](CCCCN)NC(=O)[C@@H](NC(=O)[C@@H]1CCCN1C(=O)[C@@H](NC(=O)[C@H](CC(=O)O)NC(=O)[C@H](CC(C)C)NC(=O)[C@H](CO)NC(=O)[C@H](CC(C)C)NC(=O)[C@@H](NC(=O)[C@@H](N)Cc1ccccc1)[C@@H](C)O)C(C)C)[C@@H](C)O)[C@@H](C)CC)[C@@H](C)CC)C(=O)N[C@@H](CC(C)C)C(=O)N[C@@H](CCC(=O)O)C(=O)N[C@@H](CCCNC(=N)N)C(=O)N[C@H](C(N)=O)C(C)C [compound 145] (H-FTLSLDVPTKIK([AEEA-AEEA-γGlu-C18 diacid])QILLKQERQKKQRQKAKKNKQILERV-NH2) | 1.46 nM | 96.9 nM
2 | CC[C@H](C)[C@H](NC(C)=O)C(=O)N[C@H](C(=O)N[C@@H](CC(C)C)C(=O)N[C@@H](CO)C(=O)N[C@@H](CC(C)C)C(=O)N[C@@H](CC(=O)O)C(=O)N[C@H](C(=O)N1CCC[C@H]1C(=O)N[C@H](C(=O)NCC(=O)N[C@@H](CC(C)C)C(=O)N[C@@H](CCCCNC(=O)COCCOCCNC(=O)COCCOCCNC(=O)CC[C@H](NC(=O)CCCCCCCCCCCCCCCCC(=O)O)C(=O)O)C(=O)N[C@@H](CCC(N)=O)C(=O)N[C@H](C(=O)N[C@@H](CC(C)C)C(=O)N[C@@H](CC(C)C)C(=O)N[C@@H](CCC(=O)O)C(=O)N[C@@H](CCC(N)=O)C(=O)N[C@@H](CCC(=O)O)C(=O)N[C@@H](CCCCN)C(=O)N[C@@H](CCC(N)=O)C(=O)N[C@@H](CCC(=O)O)C(=O)N[C@@H](CCCCN)C(=O)N[C@@H](CCC(=O)O)C(=O)N[C@@H](CCCCN)C(=O)N[C@@H](CCC(N)=O)C(=O)N[C@@H](CCC(N)=O)C(=O)N[C@@H](C)C(=O)N[C@@H](CCC(=O)O)C(=O)N[C@H](C(=O)N[C@@H](CC(N)=O)C(=O)N[C@@H](C)C(=O)N[C@@H](CCC(N)=O)C(=O)N[C@H](C(=O)N[C@@H](CC(C)C)C(=O)N[C@@H](C)C(=O)N[C@@H](CCC(N)=O)C(=O)N[C@H](C(N)=O)C(C)C)[C@@H](C)CC)[C@@H](C)O)[C@@H](C)CC)[C@@H](C)CC)C(C)C)C(C)C [compound 153] (Ac-IVLSLDVPIGLK([AEEA-AEEA-γGlu-C18 diacid])QILLEQEKQEKEKQQAETNAQILAQV-NH2) | 33.7 nM | –
3 | CC[C@H](C)[C@H](N)C(=O)N[C@H](C(=O)N[C@@H](CC(C)C)C(=O)N[C@@H](CO)C(=O)N[C@@H](CC(C)C)C(=O)N[C@@H](CC(=O)O)C(=O)N[C@H](C(=O)N1CCC[C@H]1C(=O)N[C@H](C(=O)NCC(=O)N[C@@H](CC(C)C)C(=O)N[C@@H](CCCCNC(=O)COCCOCCNC(=O)COCCOCCNC(=O)CC[C@H](NC(=O)CCCCCCCCCCCCCCCCC(=O)O)C(=O)O)C(=O)N[C@@H](CCC(N)=O)C(=O)N[C@H](C(=O)N[C@@H](CC(C)C)C(=O)N[C@@H](CC(C)C)C(=O)N[C@@H](CCC(=O)O)C(=O)N[C@@H](CCC(N)=O)C(=O)N[C@@H](CCC(=O)O)C(=O)N[C@@H](CCCCN)C(=O)N[C@@H](CCC(N)=O)C(=O)N[C@@H](CCC(=O)O)C(=O)N[C@@H](CCCCN)C(=O)N[C@@H](CCC(=O)O)C(=O)N[C@@H](CCCCN)C(=O)N[C@@H](CCC(N)=O)C(=O)N[C@@H](CCC(N)=O)C(=O)N[C@@H](C)C(=O)N[C@@H](CCC(=O)O)C(=O)N[C@H](C(=O)N[C@@H](CC(N)=O)C(=O)N[C@@H](CCCCN)C(=O)N[C@@H](CCCNC(=N)N)C(=O)N[C@H](C(=O)N[C@@H](CC(C)C)C(=O)N[C@@H](CCC(=O)O)C(=O)N[C@@H](CCCNC(=N)N)C(=O)N[C@H](C(N)=O)C(C)C)[C@@H](C)CC)[C@@H](C)O)[C@@H](C)CC)[C@@H](C)CC)C(C)C)C(C)C [compound 154] (H-IVLSLDVPIGLK([AEEA-AEEA-γGlu-C18 diacid])QILLEQEKQEKEKQQAETNKRILERV-NH2; N-terminus assumed) | 15 nM | 15.3 nM
4 | CC[C@H](C)[C@H](N)C(=O)N[C@H](C(=O)N[C@@H](CC(C)C)C(=O)N[C@@H](CO)C(=O)N[C@@H](CC(C)C)C(=O)N[C@@H](CC(=O)O)C(=O)N[C@H](C(=O)N1CCC[C@H]1C(=O)N[C@H](C(=O)NCC(=O)N[C@@H](CC(C)C)C(=O)N[C@@H](CCCCNC(=O)COCCOCCNC(=O)COCCOCCNC(=O)CC[C@H](NC(=O)CCCCCCCCCCCCCCCCC(=O)O)C(=O)O)C(=O)N[C@@H](CCC(N)=O)C(=O)N[C@H](C(=O)N[C@@H](CC(C)C)C(=O)N[C@@H](CC(C)C)C(=O)N[C@@H](CCC(=O)O)C(=O)N[C@@H](CCC(N)=O)C(=O)N[C@@H](CCC(=O)O)C(=O)N[C@@H](CCCCN)C(=O)N[C@@H](CCC(N)=O)C(=O)N[C@@H](CCC(=O)O)C(=O)N[C@@H](CCCCN)C(=O)N[C@@H](CCC(=O)O)C(=O)N[C@@H](CCCCN)C(=O)N[C@@H](CCC(N)=O)C(=O)N[C@@H](CCC(N)=O)C(=O)N[C@@H](C)C(=O)N[C@@H](CCC(=O)O)C(=O)N[C@@H](CCCCN)C(=O)N[C@@H](CC(N)=O)C(=O)N[C@@H](CCCCN)C(=O)N[C@@H](CCCNC(=N)N)C(=O)N[C@H](C(=O)N[C@@H](CC(C)C)C(=O)N[C@@H](CCC(=O)O)C(=O)N[C@@H](CCCNC(=N)N)C(=O)N[C@H](C(N)=O)C(C)C)[C@@H](C)CC)[C@@H](C)CC)[C@@H](C)CC)C(C)C)C(C)C [compound 155] (H-IVLSLDVPIGLK([AEEA-AEEA-γGlu-C18 diacid])QILLEQEKQEKEKQQAEKNKRILERV-NH2) | 8.87 nM | –

Molecules with a lower EC50 [1], results first:

Row | EC50 [1] | EC50 [2] | SMILES
5 | 1.36 nM | 76.3 nM | CC[C@H](C)[C@H](NC(=O)[C@H](CCC(N)=O)NC(=O)[C@H](CCCCN)NC(=O)[C@H](CC(N)=O)NC(=O)[C@@H](NC(=O)[C@H](CCCCN)NC(=O)[C@H](C)NC(=O)[C@H](CCCCN)NC(=O)[C@H](CCC(N)=O)NC(=O)[C@H](CCCNC(=N)N)NC(=O)[C@H](CCC(N)=O)NC(=O)[C@H](CCCCN)NC(=O)[C@H](CCCCN)NC(=O)[C@H](CCC(N)=O)NC(=O)[C@H](CCCNC(=N)N)NC(=O)[C@H](CCC(=O)O)NC(=O)[C@H](CCC(N)=O)NC(=O)[C@H](CCCCN)NC(=O)[C@H](CC(C)C)NC(=O)[C@H](CC(C)C)NC(=O)[C@@H](NC(=O)[C@H](CCC(N)=O)NC(=O)[C@H](CCCCNC(=O)COCCOCCNC(=O)COCCOCCNC(=O)CC[C@H](NC(=O)CCCCCCCCCCCCCCCCC(=O)O)C(=O)O)NC(=O)[C@@H](NC(=O)[C@H](CCCCN)NC(=O)[C@@H](NC(=O)[C@@H]1CCCN1C(=O)[C@@H](NC(=O)[C@H](CC(=O)O)NC(=O)[C@H](CC(C)C)NC(=O)[C@H](CO)NC(=O)[C@H](CC(C)C)NC(=O)[C@@H](NC(=O)[C@@H](N)Cc1ccccc1)[C@@H](C)O)C(C)C)[C@@H](C)O)[C@@H](C)CC)[C@@H](C)CC)[C@@H](C)O)C(=O)N[C@@H](CC(C)C)C(=O)N[C@@H](CCC(=O)O)C(=O)N[C@@H](CCCNC(=N)N)C(=O)N[C@H](C(N)=O)C(C)C [compound 144] (H-FTLSLDVPTKIK([AEEA-AEEA-γGlu-C18 diacid])QILLKQERQKKQRQKAKTNKQILERV-NH2)
6 | 0.06 nM | 3.64 nM | CC[C@H](C)[C@H](N)C(=O)N[C@H](C(=O)N[C@@H](CC(C)C)C(=O)N[C@@H](CO)C(=O)N[C@@H](CC(C)C)C(=O)N[C@@H](CC(=O)O)C(=O)N[C@@H](C(=O)N1CCC[C@H]1C(=O)N[C@H](C(=O)N[C@@H](CCCCN)C(=O)N[C@@H](CC(C)C)C(=O)N[C@@H](CCCCNC(=O)COCCOCCNC(=O)COCCOCCNC(=O)CC[C@H](NC(=O)CCCCCCCCCCCCCCCCCCC(=O)O)C(=O)O)C(=O)N[C@@H](CCC(N)=O)C(=O)N[C@H](C(=O)N[C@@H](CC(C)C)C(=O)N[C@@H](CC(C)C)C(=O)N[C@@H](CCCCN)C(=O)N[C@@H](CCC(N)=O)C(=O)N[C@@H](C)C(=O)N[C@@H](CCCNC(=N)N)C(=O)N[C@@H](CCC(N)=O)C(=O)N[C@@H](CCCCN)C(=O)NC(C)(C)C(=O)N[C@@H](CCC(N)=O)C(=O)N[C@@H](CCCNC(=N)N)C(=O)N[C@@H](C)C(=O)N[C@@H](CCC(N)=O)C(=O)N[C@@H](C)C(=O)N[C@@H](CCC(=O)O)C(=O)N[C@@H](CCCCN)C(=O)N[C@@H](CC(N)=O)C(=O)N[C@@H](CCCCN)C(=O)N[C@@H](CCCNC(=N)N)C(=O)N[C@H](C(=O)N[C@@H](CC(C)C)C(=O)N[C@@H](CCC(=O)O)C(=O)N[C@@H](CCCNC(=N)N)C(=O)N[C@H](C(N)=O)C(C)C)[C@@H](C)CC)[C@@H](C)CC)[C@@H](C)CC)C(C)C)C(C)C [compound 175] (H-IVLSLD[dV]PIKLK([AEEA-AEEA-γGlu-C20 diacid])QILLKQARQK[Aib]QRAQAEKNKRILERV-NH2; N-terminus assumed)
